According to US20120029187A1, “HALOALKYLSULFONANILIDE DERIVATIVE” (Nissan Chemical Industries, Ltd., priority 2009, published 2012):

How the values were obtained:
Format in all cases: in vivo
wild oat [1] = assay: Test Example 4: herbicidal effect in foliage treatment; details: dose 3.2 g/a
Method in brief: (§1)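 Sowing in sterilized diluvial soil, ~1.5 cm cover; growth 14 d, 25–30° C greenhouse; foliar spray of water-diluted EC at predetermined g/a; scoring 3 wk later on graded scale.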

giant foxtail [2] = assay: as above; details: dose 3.2 g/a
Method in brief: as §1

common lambsquater [3] = assay: as above; details: dose 3.2 g/a
Method in brief: as §1

beadstraw [4] = assay: as above; details: dose 3.2 g/a
Method in brief: as §1

velvetleaf [5] = assay: as above; details: dose 3.2 g/a
Method in brief: as §1

barnyardgrass [6] = assay: as above; details: dose 3.2 g/a
Method in brief: as §1

redroot pigweed [7] = assay: as above; details: dose 3.2 g/a
Method in brief: as §1

large crabgrass [8] = assay: as above; details: dose 3.2 g/a
Method in brief: as §1

common ragweed [9] = assay: as above; details: dose 3.2 g/a
Method in brief: as §1

water foxtail [10] = assay: as above; details: dose 3.2 g/a
Method in brief: as §1

common chickweed [11] = assay: as above; details: dose 3.2 g/a
Method in brief: as §1

Italian ryegrass [12] = assay: as above; details: dose 3.2 g/a
Method in brief: as §1

posumbu knotweed [13] = assay: as above; details: dose 3.2 g/a
Method in brief: as §1

ducksalad [14] = assay: Test Example 2: herbicidal effects during the vegetation period under submerged conditions; details: treatment during the vegetation period under submerged conditions; dose 2.52 g/a
Method in brief: (§2)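 Barnyardgrass, bulrush and ducksalad were co-sown in alluvial soil flooded to 4 cm and grown in a greenhouse at 25 to 30° C. At the 1- or 2-leaf stage, water-diluted emulsifiable concentrates went onto the water surface at set doses (g/a). Herbicidal effect was scored three weeks later on a graded scale.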

barnyardgrass [15] = assay: as above; details: treatment during the vegetation period under submerged conditions; dose 2.52 g/a
Method in brief: as §2

bulrush [16] = assay: as above; details: treatment during the vegetation period under submerged conditions; dose 2.52 g/a
Method in brief: as §2

wild oat [17] = assay: Test Example 3: herbicidal effects in soil treatment; details: dose 3.2 g/a
Method in brief: (§3)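 Seeds were sown in sterilized diluvial soil and covered with about 1.5 cm of soil. Compounds, formulated as emulsifiable concentrates and diluted with water, were sprayed evenly over the soil surface at set doses in g/a. Herbicidal effect was scored on a rating scale three weeks later.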

giant foxtail [18] = assay: as above; details: dose 3.2 g/a
Method in brief: as §3

common lambsquater [19] = assay: as above; details: dose 3.2 g/a
Method in brief: as §3

beadstraw [20] = assay: as above; details: dose 3.2 g/a
Method in brief: as §3

velvetleaf [21] = assay: as above; details: dose 3.2 g/a
Method in brief: as §3

barnyardgrass [22] = assay: as above; details: dose 3.2 g/a
Method in brief: as §3

redroot pigweed [23] = assay: as above; details: dose 3.2 g/a
Method in brief: as §3

large crabgrass [24] = assay: as above; details: dose 3.2 g/a
Method in brief: as §3

common ragweed [25] = assay: as above; details: dose 3.2 g/a
Method in brief: as §3

water foxtail [26] = assay: as above; details: dose 3.2 g/a
Method in brief: as §3

common chickweed [27] = assay: as above; details: dose 3.2 g/a
Method in brief: as §3

Italian ryegrass [28] = assay: as above; details: dose 3.2 g/a
Method in brief: as §3

posumbu knotweed [29] = assay: as above; details: dose 3.2 g/a
Method in brief: as §3

transplanted rice = assay: Test Example 1: preemergence treatment under submerged conditions, effect on crop; details: dose 2.52 g/a
Method in brief: (§4)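 Scoring 0 (<5% mortality) to 5 (≥90%) was done three weeks after preemergence application to the water surface of submerged (4 cm) alluvial soil, doses given as g per are. Weeds were seeded and 2.5-leaf rice transplanted on the treatment day; greenhouse at 25–30 °C.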

ducksalad [30] = assay: Test Example 1: herbicidal effects in preemergence treatment under submerged conditions; details: dose 2.52 g/a
Method in brief: as §4

barnyardgrass [31] = assay: as above; details: dose 2.52 g/a
Method in brief: as §4

bulrush [32] = assay: as above; details: dose 2.52 g/a
Method in brief: as §4

[33] = three weeks after the application

SMILES: CC1(C)OCN(Cc2ccccc2N(S(=O)(=O)C(F)(F)F)S(=O)(=O)C(F)(F)F)C(=O)C1F (stereo not drawn) [II-37]
- F: wild oat, herbicidal effect (wild oat [1]; three weeks after application): 1 (mortality of at least 5% and less than 20%)
- E: giant foxtail, herbicidal effect (giant foxtail [2]; three weeks after application): 3 (mortality of at least 40% and less than 70%)
- L: common lambsquater, herbicidal effect (common lambsquater [3]; three weeks after application): 2 (mortality of at least 20% and less than 40%)
- O: beadstraw, herbicidal effect (beadstraw [4]; three weeks after application): 4 (mortality of at least 70% and less than 90%)
- I: velvetleaf, herbicidal effect (velvetleaf [5]; three weeks after application): 3 (mortality of at least 40% and less than 70%)
- A: barnyardgrass, herbicidal effect (barnyardgrass [6]; three weeks after application): 5 (mortality of 90% or above (nearly complete death))
- K: redroot pigweed, herbicidal effect (redroot pigweed [7]; three weeks after application): 2 (mortality of at least 20% and less than 40%)
- D: large crabgrass, herbicidal effect (large crabgrass [8]; three weeks after application): 4 (mortality of at least 70% and less than 90%)
- J: common ragweed, herbicidal effect (common ragweed [9]; three weeks after application): 4 (mortality of at least 70% and less than 90%)
- G: water foxtail, herbicidal effect (water foxtail [10]; three weeks after application): 5 (mortality of 90% or above (nearly complete death))
- N: common chickweed, herbicidal effect (common chickweed [11]; three weeks after application): 4 (mortality of at least 70% and less than 90%)
- H: Italian ryegrass, herbicidal effect (Italian ryegrass [12]; three weeks after application): 3 (mortality of at least 40% and less than 70%)
- M: posumbu knotweed, herbicidal effect (posumbu knotweed [13]; three weeks after application): 3 (mortality of at least 40% and less than 70%)
- C: ducksalad, herbicidal effect (evaluation scale 0-5) (ducksalad [14]): 5 (mortality of 90% or above (nearly complete death))
- A: barnyardgrass, herbicidal effect (evaluation scale 0-5) (barnyardgrass [15]): 5 (mortality of 90% or above (nearly complete death))
- B: bulrush, herbicidal effect (evaluation scale 0-5) (bulrush [16]): 5 (mortality of 90% or above (nearly complete death))
- F: wild oat, herbicidal effect (evaluation scale 0-5) (wild oat [17]): 4 (mortality of at least 70% and less than 90%)
- E: giant foxtail, herbicidal effect (evaluation scale 0-5) (giant foxtail [18]): 3 (mortality of at least 40% and less than 70%)
- L: common lambsquater, herbicidal effect (evaluation scale 0-5) (common lambsquater [19]): 0 (mortality of less than 5% (almost ineffective))
- O: beadstraw, herbicidal effect (evaluation scale 0-5) (beadstraw [20]): 4 (mortality of at least 70% and less than 90%)
- I: velvetleaf, herbicidal effect (evaluation scale 0-5) (velvetleaf [21]): 0 (mortality of less than 5% (almost ineffective))
- A: barnyardgrass, herbicidal effect (evaluation scale 0-5) (barnyardgrass [22]): 5 (mortality of 90% or above (nearly complete death))
- K: redroot pigweed, herbicidal effect (evaluation scale 0-5) (redroot pigweed [23]): 3 (mortality of at least 40% and less than 70%)
- D: large crabgrass, herbicidal effect (evaluation scale 0-5) (large crabgrass [24]): 5 (mortality of 90% or above (nearly complete death))
- J: common ragweed, herbicidal effect (evaluation scale 0-5) (common ragweed [25]): 5 (mortality of 90% or above (nearly complete death))
- G: water foxtail, herbicidal effect (evaluation scale 0-5) (water foxtail [26]): 5 (mortality of 90% or above (nearly complete death))
- N: common chickweed, herbicidal effect (evaluation scale 0-5) (common chickweed [27]): 2 (mortality of at least 20% and less than 40%)
- H: Italian ryegrass, herbicidal effect (evaluation scale 0-5) (Italian ryegrass [28]): 0 (mortality of less than 5% (almost ineffective))
- M: posumbu knotweed, herbicidal effect (evaluation scale 0-5) (posumbu knotweed [29]): 0 (mortality of less than 5% (almost ineffective))
- a: transplanted rice, effect on crop (evaluation scale 0-5) (transplanted rice): 2 (mortality of at least 20% and less than 40%)
- C: ducksalad, herbicidal effect (evaluation scale 0-5) (ducksalad [30]): 5 (mortality of 90% or above (nearly complete death))
- A: barnyardgrass, herbicidal effect (evaluation scale 0-5) (barnyardgrass [31]): 5 (mortality of 90% or above (nearly complete death))
- B: bulrush, herbicidal effect (evaluation scale 0-5) (bulrush [32]): 5 (mortality of 90% or above (nearly complete death))

SMILES: O=C1CCSCN1Cc1ccccc1NS(=O)(=O)C(F)(F)F [II-78]
- F: wild oat, herbicidal effect (wild oat [1]; [33]): 0 (mortality of less than 5% (almost ineffective))
- E: giant foxtail, herbicidal effect (giant foxtail [2]; [33]): 4 (mortality of at least 70% and less than 90%)
- L: common lambsquater, herbicidal effect (common lambsquater [3]; [33]): 4 (mortality of at least 70% and less than 90%)
- O: beadstraw, herbicidal effect (beadstraw [4]; [33]): 5 (mortality of 90% or above (nearly complete death))
- I: velvetleaf, herbicidal effect (velvetleaf [5]; [33]): 5 (mortality of 90% or above (nearly complete death))
- A: barnyardgrass, herbicidal effect (barnyardgrass [6]; [33]): 4 (mortality of at least 70% and less than 90%)
- K: redroot pigweed, herbicidal effect (redroot pigweed [7]; [33]): 4 (mortality of at least 70% and less than 90%)
- D: large crabgrass, herbicidal effect (large crabgrass [8]; [33]): 4 (mortality of at least 70% and less than 90%)
- J: common ragweed, herbicidal effect (common ragweed [9]; [33]): 4 (mortality of at least 70% and less than 90%)
- G: water foxtail, herbicidal effect (water foxtail [10]; [33]): 5 (mortality of 90% or above (nearly complete death))
- N: common chickweed, herbicidal effect (common chickweed [11]; [33]): 4 (mortality of at least 70% and less than 90%)
- H: Italian ryegrass, herbicidal effect (Italian ryegrass [12]; [33]): 5 (mortality of 90% or above (nearly complete death))
- M: posumbu knotweed, herbicidal effect (posumbu knotweed [13]; [33]): 4 (mortality of at least 70% and less than 90%)
- C: ducksalad, herbicidal effect (evaluation scale 0-5) (ducksalad [14]): 5 (mortality of 90% or above (nearly complete death))
- A: barnyardgrass, herbicidal effect (evaluation scale 0-5) (barnyardgrass [15]): 5 (mortality of 90% or above (nearly complete death))
- B: bulrush, herbicidal effect (evaluation scale 0-5) (bulrush [16]): 5 (mortality of 90% or above (nearly complete death))
- herbicidal effect, F: wild oat (wild oat [17]): 0 (mortality of less than 5% (almost ineffective))
- herbicidal effect, E: giant foxtail (giant foxtail [18]): 5 (mortality of 90% or above (nearly complete death))
- herbicidal effect, L: common lambsquater (common lambsquater [19]): 4 (mortality of at least 70% and less than 90%)
- herbicidal effect, O: beadstraw (beadstraw [20]): 0 (mortality of less than 5% (almost ineffective))
- herbicidal effect, I: velvetleaf (velvetleaf [21]): 5 (mortality of 90% or above (nearly complete death))
- herbicidal effect, A: barnyardgrass (barnyardgrass [22]): 5 (mortality of 90% or above (nearly complete death))
- herbicidal effect, K: redroot pigweed (redroot pigweed [23]): 3 (mortality of at least 40% and less than 70%)
- herbicidal effect, D: large crabgrass (large crabgrass [24]): 5 (mortality of 90% or above (nearly complete death))
- herbicidal effect, J: common ragweed (common ragweed [25]): 4 (mortality of at least 70% and less than 90%)
- herbicidal effect, G: water foxtail (water foxtail [26]): 5 (mortality of 90% or above (nearly complete death))
- herbicidal effect, N: common chickweed (common chickweed [27]): 5 (mortality of 90% or above (nearly complete death))
- herbicidal effect, H: Italian ryegrass (Italian ryegrass [28]): 5 (mortality of 90% or above (nearly complete death))
- herbicidal effect, M: posumbu knotweed (posumbu knotweed [29]): 4 (mortality of at least 70% and less than 90%)
- a: transplanted rice, effect on crop (evaluation scale 0-5) (transplanted rice): 0 (mortality of less than 5% (almost ineffective))
- C: ducksalad, herbicidal effect (evaluation scale 0-5) (ducksalad [30]): 5 (mortality of 90% or above (nearly complete death))
- A: barnyardgrass, herbicidal effect (evaluation scale 0-5) (barnyardgrass [31]): 5 (mortality of 90% or above (nearly complete death))
- B: bulrush, herbicidal effect (evaluation scale 0-5) (bulrush [32]): 5 (mortality of 90% or above (nearly complete death))
